From patent publication US5430058A, “Pharmaceutical compositions comprising hydroxamate derivatives for iron removal” (Yeda Research and Development Co. Ltd., priority 1993, dated 1995)
Converted amounts (≈) assume the structure as drawn. Read-outs that look alike come from different tables or passages of the source.

What was measured:
[1] = Partition between n-octanol and saline; type: physicochemical; settings: for rel. Pcoeff (a): Table 2, relative to L-val-n1 = 1.0
Method: e. Partition coefficients were obtained by overnight equilibration of the free reversed siderophores between equal volumes of n-octanol and saline. The concentrations of the ligands in each phase were determined by adding excess iron(III) and measuring the ferric complexes at 430 nm.
The values for Pcoeff of free RSF ileun2 (the same as SF1ileu) and of leun2 and their respective iron(III) complexes were similar (not shown).

[2] = tested on: Plasmodium falciparum strain FCR3; test: Antimalarial activity in various strains, FCR3; type: cell-based
Method: (§1) f. Parasite cultures. The P. falciparum strains used in the experiments: ItG2G1 (Brazil, provided by Dr. L. H. Miller), D6 (W. African, provided by Dr. A. J. M. Oduola) FCR-3 (Gambian, provided by Dr. J. B. Jensen) and W2 (Indochina, provided by Dr. A. J. M. Oduola), were grown in culture flasks of human erythrocytes by a modified version of Trager and Jensen's method as described by Silfen et al. ((1988) Biochem. Pharmacol. 37: 4269-4276)).
(§2) g. Bioassay of iron carrier antimalarial activity. […] After the indicated time of incubation with drug and either previous to or after washing 3 times with 100 volumes growth medium, the cells were supplemented with 6 μCi of either [^3 H]-hypoxanthine or [^3 H]-Ileu (Amersham, England) per well and parasite growth assessed after 24-48 hours by harvesting the labelled cells onto glass-fiber filters (Tamar, Inc. Jerusalem) and counting of the radioactivity.
(§3) It is clear that the efficacy of the agents is primarily correlated with the respective octanol/saline partition coefficient or the hydrophobicity of the amino acid side chain, and only secondarily with their iron binding efficiencies, which are relatively high for all the agents. […] The antimalarial activity of the various chelators was assessed over a 24 hr period of exposure on infected cells (trophozoite stage of P. falciparum) as described in method (g). […]

[3] = tested on: synchronized cultures of trophozoites (P. falciparum); test: Time dependence of parasite growth inhibition, trophozoites; type: cell-based, Plasmodium falciparum; settings: for Inhibitory effect, in words: trophozoites; for inhibition at 10 µg/mL: Plasmodium falciparum, read-out: Inhibition of parasite growth
Method: (§4) g. Bioassay of iron carrier antimalarial activity. The antimalarial activity was assayed by adding the compounds from concentrated stock solutions (in DMSO) to microcultures (24 wells, Costar) containing infected red cells (2.5% hematocrit and 2% parasitemia). The cultures were usually synchronized (4-7 hrs. windows) by incubation in 300 mM Ala, 10 mM TRIS-Cl in conjunction with gelatin flotation and used either at the trophozoite (1-2% parasitemia) or at the ring stage (4-6% parasitemia) of the erythrocyctic cycle. After the indicated time of incubation with drug and either previous to or after washing 3 times with 100 volumes growth medium, the cells were supplemented with 6 μCi of either [^3 H]-hypoxanthine or [^3 H]-Ileu (Amersham, England) per well and parasite growth assessed after 24-48 hours by harvesting the labelled cells onto glass-fiber filters (Tamar, Inc. Jerusalem) and counting of the radioactivity.
To study the growth stage of parasites most sensitive to inhibition, the time dependence of the inhibitory effect of SF1-ileu (10 μg/ml) vis a vis that of DFO (80 μg/ml) was assessed both on synchronized cultures of rings and of cultures of trophozoites. The cells were exposed to the […], the cells were washed from extracellular drug and assessed for [^3 H]-hypoxanthine incorporation after the last sample completed the 4 hours incubation period with drug.

[4] = tested on: Plasmodium falciparum strain ItG2G1; test: Antimalarial activity in various strains, ItG2G1; type: cell-based
Method: as §1, §2, §3

[5] = tested on: trophozoites of P. falciparum; test: Antimalarial activity (Table 2), [3H]-hypoxanthine incorporation; type: cell-based, Plasmodium falciparum; settings: 40 h
Method: as §4, with “radioactivity. […]” for “radioactivity.”

[6] = tested on: red cells; test: Penetration of chelator into red cells; type: cell-based, human
[7] = tested on: normal red cells; test: Extraction of chelatable iron, normal red cells (NRC); type: cell-based, human; settings: Experiment 1, NRC, 12 μM, 2 hours at 37° C (untreated <0.1)
Method: (§5) l. Extraction of chelatable iron. Trophozoite stage parasites were obtained from step gradient of Percoll-3% L-alanine in phosphate buffered saline (10 mM Na-phosphate, 150 mM NaCl, pH 7.4). Cell suspensions of 100% parasitemia were adjusted to 1% hematocrit and placed in RPMI growth medium supplemented with 50 mM sucrose and 20 mM glucose. Pretreatment of cells was done with 12 μM of the indicated SF derivative or DMSO for 2 hours at 37° C. at which time the cells were washed twice in 500× volume of buffer containing 150 mM NaCl, 10 mM HEPES and 50 mM sucrose pH=7.4 Next the cells were incubated for additional 3 hours in 6.8 μM NBD-DFO and washed to remove fluorescent probe. Measurements of chelatable iron were carried out in the TCA soluble fraction of freeze thaw lysates as described by Lytton, S. D. et al., 1991 Mol. Pharmacol. 40:584-590.
(§6) Iron extractions were performed on cell suspensions treated (yes) or untreated (no) with 12 μM RSF n2-ileu for 2 hours at 37° C. Fluorescence assays of chelatable iron in non-infected (NRC) and in parasitized (IRC) red cells were carried out as described by Lytton et al., (1991) Mol. Pharmacol. 40:584.

[8] = tested on: infected red cells; test: Extraction of chelatable iron, infected red cells (IRC); type: cell-based, human erythrocytes infected with P. falciparum; settings: 12 μM
Method: as §5, §6

[9] = tested on: transferrin; test: Effect on iron in transferrin; settings: after the same time of exposure

IC50 ([2]; strain FCR3 (chloroquine-resistant), 48 hour exposure, trophozoites, read-out: IC50) [µg/mL] | IC50 ([4]; strain ItG2G1 (chloroquine-sensitive), 48 hour exposure, trophozoites, read-out: IC50) [µg/mL] | IC50 (c) [5] [nM] | SMILES | rel. Pcoeff (a) [1] | Inhibitory effect, in words ([3]; DFO 80 μg/ml, 6 hrs exposure) | Inhibitory effect, in words ([3]; DFO 80 μg/ml, 20 hrs exposure) | logP ([1]; Table 1, free ligand, read-out: Partition coefficient (converted)) | Pcoeff of free ligand vs iron(III) complex ([1]; not shown) | Penetration into red cells [6] | IC50 ([2]; FCR3, 48 h) [µg/mL] | inhibition at 10 µg/mL ([3]; 2 h) [%] | inhibition at 10 µg/mL ([3]; 20 h) [%] | Inhibitory effect, in words ([3]; 0.5 hr incubation, SF1-ileu 10 μg/ml) | Chelatable iron after RSF pretreatment [7] [nmoles/10^10 cells] | IC50 ([4]; 48 h) [µg/mL] | IC50 ([5]; Plasmodium falciparum, read-out: IC50 (c)) [nM] | Chelatable iron after RSF pretreatment ([8]; Experiment 1, IRC, 2 hours at 37° C (untreated 4.6)) [nmoles/10^10 cells] | Chelatable iron after RSF pretreatment ([8]; Experiment 2, IRC, 2 hours at 37° C (untreated 2.9)) [nmoles/10^10 cells] | Reduction of chelatable iron ([8]; pretreatment of trophozoites, 2 hours) | Effect on iron in transferrin [9]
32 ± 7 (≈ 57.1 µM) | 35 ± 3 (≈ 62.4 µM) | 40000 ± 8000 | CC(=O)N(O)CCCCCNC(=O)CCC(=O)N(O)CCCCCNC(=O)CCC(=O)N(O)CCCCCN [DFO, desferrioxamine B, reference compound] | < 0.056 | inhibitory effects were dismal | substantial inhibition | – | – | – | – | – | – | – | – | – | – | – | – | – | –
– | – | – | CC[C@H](C)[C@H](NC(=O)CCOCC(CC)(COCCC(=O)N[C@H](C(=O)N(C)O)[C@@H](C)CC)COCCC(=O)N[C@H](C(=O)N(C)O)[C@@H](C)CC)C(=O)N(C)O [SF1-ileu] | 8.2 | – | – | 1.15 | similar | can easily penetrate into red cells | 3 ± 1 (≈ 3.86 µM) | ~90 | > 95 | major inhibitory effects | 0.7 | 5 ± 2 (≈ 6.44 µM) | 3000 ± 2000 | 0.9 | 0.3 | 5-10 fold | not substantially affecting
